Key:
ERRα [1] = molecular target: T1, ERRα (Homo sapiens, UniProt P11474); details: Yang et al. (1999); Tremblay et al. (2001a); cited from earlier work
T1 sequence (P11474 1-423): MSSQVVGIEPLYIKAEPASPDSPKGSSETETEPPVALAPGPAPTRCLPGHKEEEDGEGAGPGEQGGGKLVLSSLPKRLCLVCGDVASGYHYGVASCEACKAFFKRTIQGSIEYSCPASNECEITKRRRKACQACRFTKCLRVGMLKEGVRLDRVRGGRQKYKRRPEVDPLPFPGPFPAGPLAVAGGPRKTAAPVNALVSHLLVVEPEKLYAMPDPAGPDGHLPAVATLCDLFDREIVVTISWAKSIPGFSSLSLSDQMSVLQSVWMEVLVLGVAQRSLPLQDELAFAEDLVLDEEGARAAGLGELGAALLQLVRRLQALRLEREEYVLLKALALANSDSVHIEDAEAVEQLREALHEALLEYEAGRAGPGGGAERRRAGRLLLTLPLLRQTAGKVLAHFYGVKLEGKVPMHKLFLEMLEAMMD

ERRα mRNA = ERRα mRNA levels in C5.18 cultures by semi-quantitative RT-PCR, normalised against L32; format: cell-based, rat; details: C5.18 cultures without FBS, 10^−9M E2 versus 0.01% ethanol vehicle, day 2; FIG. 8 Panel B
Procedure: Semi-quantitative RT-PCR was carried out as described in Bonnelye et al. (2001), over the proliferation/differentiation time course of C5.18 cultures treated with Dex. Days 3 and 6 were within the proliferation phase and days 11, 15 and 21 were within the differentiation stage. ERRα expression was normalised against that of the ribosomal probe L32. For comparison, mRNA levels for three chondroblast markers, type II collagen, aggrecan and link protein, were also assessed, normalised against L32.
C5.18 cells were grown in medium with (+) and without (−) fetal bovine serum (FBS). ERRα mRNA levels were determined by semi-quantitative RT-PCR and normalised against ribosomal probe L32.
Similar C5.18 cultures were grown without FBS but in the presence of estrogen (10^−9M E2) or vehicle (0.01% ethanol) (VEH) and mRNA levels were determined as above.

ERRα [2] = molecular target: T1, ERRα; details: cited from earlier work

Compound	ERRα antagonist activity (ERRα [1])	ERRα mRNA levels (ERRα mRNA)	binding to ERRα (ERRα [2])
ClC1=C(Cl)C2(Cl)C3C(Cl)C(Cl)CC3C1(Cl)C2(Cl)Cl (stereo not drawn) [chlordane]	antagonise ERRα activity	–	–
estrogen	–	significantly increased	does not bind

Source: patent US20070054859A1, “Estrogen receptor-related receptor alpha (ERRalpha) and cartilage formation” (priority 2001, published 2007)
